Data: patent publication US20110152362A1, “METHODS OF TREATING EPILEPTOGENESIS AND EPILEPSY” (priority 2004, published 2011)
Several values for one entry are separate records, joined by “and”; a condition that tells them apart may be missing. Equal values may be shown once.

Columns and labels:
[1] = tested on: rats subjected to Li-pilo induced SE; test: Example 1: mortality induced by lithium-pilocarpine status epilepticus; assay type: in vivo, rat; settings: pilo-DZP, 2 mg/kg i.m. 1 h after onset of SE
Method: (§1) The bilateral EEG cortical activity was recorded during the whole duration of SE and behavioral changes were noted.
(§2) The effects of increasing doses of the Test Compound were studied on 3 groups of rats. The animals of the first group received 10 mg/kg of the test compound, i.p., 1 h after the onset of SE (pilo-TC10) while the animals of groups 2 and 3 received 30 and 60 mg/kg of the Test Compound (pilo-TC30 and pilo-TC60), respectively.
(§3) The control group received saline instead of pilocarpine and the Test Compound (saline-saline). […] Pilo-DZP received a second injection of 1 mg/kg DZP on the day of SE at about 10 h after the first one. Thereafter, Pilo-DZP and saline-saline rats received twice daily an equivalent volume of saline.

[2] = tested on: rats subjected to Li-pilo induced SE; test: Example 1: latency to and frequency of spontaneous recurrent seizures (SRS), lithium-pilocarpine model; assay type: in vivo, rat
Method: as §1, §2, §3
The effects of the test compound on the EEG and on the latency to occurrence of SRS were investigated by daily video recording of the animals for 10 h per day and the recording of the electrographic activity twice a week for 8 h.
To calculate the frequency of SRS in pilocarpine-exposed rats, the seizure severity and distinguished stage III (clonic seizures of facial muscles and anterior limbs) and stage IV-V seizures (rearing and falling) was measured. The frequency of stage III SRS per week in pilo-DZP and pilo-test compound rats was variable amongst the groups. It was low, constant in the pilo-DZP and pilo-TC60 (with early SRS onset) groups during the first 3 weeks and had disappeared during the 4th week in the pilo-DZP group. […] The frequency of more severe stage IV-V SRS was highest during the first week in most groups, except pilo-TC30 and TC60 with late seizure onset where the SRS frequency was constant over the whole 4 weeks in TC30 group and over the first two weeks in the pilo-TC60 group with late SRS onset in which no stage IV-V seizures where no seizures recorded after the second week.

[3] = tested on: rats subjected to Li-pilo induced SE; test: Example 1: quantification of cell densities in hippocampus, thalamus and cortex after Li-pilo SE; assay type: in vivo, rat; settings: pilo-DZP rats
Method: as §2, §3
Quantification of cell densities was performed at 6 days after SE on 8 pilo-DZP, 8 pilo-TC10, 7 pilo-TC30, 7 pilo-TC60, and 6 saline-saline rats. […] Counts involved only cells larger than 10 μm, smaller ones being considered as glial cells.
For the comparison of the characteristics of SE in pilo-saline and pilo-test compound animals, a non-paired Student's t-test was used. The comparison between the number of rats seizing in both groups was performed by means of a Chi square test. For neuronal damage, statistical analysis between groups was performed using ANOVA followed by a Fisher's test for multiple comparisons using the Statview software (Fisher R A, 1946a, Statistical Methods for Research Workers (10th edition) Oliver & Boyd, Edinburgh; Fisher R A, 1946b, The Design of Experiments (4th edition) Oliver & Boyd, Edinburgh)

[4] = tested on: rats subjected to Li-pilo induced SE; test: Example 1: Timm staining, mossy fiber sprouting in hippocampus; assay type: in vivo, rat; settings: pilo-DZP rats
Method: At 2 months after the onset of spontaneous recurrent seizures, mossy fiber sprouting was examined on rats in the chronic period exposed to the test compound or DZP and in 3 saline-saline rats. Animals were deeply anaesthetized and perfused transcardially with saline followed by 100 ml of 1.15% (w/v) Na2S in 0.1 M phosphate buffer, and 100 ml of 4% (v/v) formaldehyde in 0.1 M phosphate buffer. Brains were removed from skull, post-fixed in 4% formaldehyde during 3-5 h and 40 μm sections were cut on a sliding vibratome and mounted on gelatin-coated slides.
The following day, sections were developed in the dark in a 26° C. solution of 50% (w/v) arabic gum (160 ml), sodium citrate buffer (30 ml), 5.7% (w/v) hydroquinone (80 ml) and 10% (w/v) silver nitrate (2.5 ml) during 40-45 min. The sections were then rinsed with tap water at 40° C. during at least 45 min, rinsed rapidly with distilled water and allowed to dry. They were dehydrated in ethanol and coverslipped.
Mossy fiber sprouting was evaluated according to criteria previously described in dorsal hippocampus (Cavazos et al., 1991, J Neurosci 11:2795-2803.), which are follows: 0—no granules between the tips and crest of the DG; 1—sparse granules in the supragranular region in a patchy distribution between the tips and crest of DG; 2—more numerous granules in a continuous distribution between the tips and crest of DG; 3—prominent granules in a continuous pattern between tips and crest, with occasional patches of confluent granules between tips and crest; 4—prominent granules that form a confluent dense laminar band between tips and crest and 5—confluent dense laminar band of granules that extends into the inner molecular layer.

[5] = tested on: rats subjected to li-pilo SE; test: Example 2: mortality over the first 48 h after Li-pilo SE; assay type: in vivo, rat; set-up: concentration or dose not given beside the values; settings: DZP
[6] = tested on: rats subjected to li-pilo SE; test: Example 2: latency to and frequency of spontaneous seizures (video recording); assay type: in vivo, rat; settings: DZP group, 2.5 mg/kg i.m.; 2.5 mg/kg
Method: The effects of DZP and the 4 doses of TC on epileptogenesis were investigated by daily video recording of the animals for 10 h per day. Video recording was performed for 4 weeks during which the occurrence of the first seizure was noted as well as the total number of seizures over the whole period. Animals were then taken off the video recording system and kept for 4 additional weeks in our animal facilities before they were sacrificed after a total period of 8 weeks of epilepsy.

[7] = tested on: rats subjected to li-pilo SE; test: Example 2: quantification of cell densities 14 days after li-pilo SE;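 note: Thionine-stained 20 µm brain sections, neurons with cell bodies above 10 µm counted, value is the mean of 12 fields per structure from three adjacent sections, both sides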
Method: All rats received lithium chloride (3 meq/kg, i.p., Sigma, St Louis, Mo., U.S.A.) and about 20 h later, all animals received also methylscopolamine bromide (1 mg/kg, s.c., Sigma) that was administered to limit the peripheral effects of the convulsant. […] The effects of increasing doses of TC were studied in 5 groups of rats. […] The control group received vehicle instead of pilocarpine and TC.
For neuronal counting, animals were deeply anesthetized with 1.8 g/kg pentobarbital (Dolethal®, Vetoquinol, Lure, France). Brains were then removed and frozen. Serial 20 μm slices were cut in a cryostat, air-dried during several days before thionine staining. […] The grid of counting was placed on a well defined area of the cerebral structure of interest and counting was carried out with a microscopic enlargement of 200- or 400-fold defined for each single cerebral structure. Cell counts were performed twice on each side of three adjacent sections for each region by a single observer unaware of the animal's treatment. The number of cells obtained in the 12 counted fields in each cerebral structure was averaged. This procedure was used to minimize the potential errors that could result from double counting leading to overestimation of cell numbers. […] Counts involved only neurons with cell bodies larger than 10 μm. Cells with small cell bodies were considered as glial cells and were not counted.
For neuronal damage and epileptogenesis, statistical analysis between groups was performed by means of a one-way analysis of variance followed by a post-hoc Dunnett or Fisher test using the Statistica software.

[8] = pilo-DZP (DZP 2.5 mg/kg i.m.), 14 days after li-pilo SE

With CN1C(=O)CN=C(c2ccccc2)c2cc(Cl)ccc21 [DZP, diazepam, reference compound] the “mortality during the first 48 h after SE” value [1] was 23%, the “frequency of stage IV-V SRS” value ([2]; first week, pilo-DZP group) was 11.3 SRS per week and the “latency to SRS” value ([2]; pilo-DZP rats) was 18.2 ± 6.9 days. The “cell loss vs saline-saline, CA1 pyramidal cell layer” value [3] was 70% and 75%, the “cell loss vs saline-saline, CA3a” value [3] was 54% and the “cell loss vs saline-saline, CA3b” value [3] was 31%. The “cell loss vs saline-saline, hilus of dentate gyrus” value [3] was 73%, the “cell loss vs saline-saline, lateral thalamic nucleus” value [3] was 91% and the “cell loss vs saline-saline, mediodorsal thalamic nucleus” value [3] was 56%. For the same molecule, the “cell loss vs saline-saline, piriform cortex layer II” value [3] was 53%, the “cell loss vs saline-saline, ventral entorhinal cortex layers III-IV” value [3] was 44% and the “cell loss, piriform cortex layers III-IV” value [3] was “total”. The “damage vs saline-saline, dorsal entorhinal cortex layer II” value [3] was 9%, the “damage vs saline-saline, dorsal entorhinal cortex layers III-IV” value [3] was 15% and the “damage, ventral entorhinal cortex layer II” value [3] was “totally preserved”. For the same molecule, the “Timm score in the upper blade of the dentate gyrus, mean” value [4] was 2.8±0.8, the “mortality over the first 48 h after SE” value ([5]; group for cell counting at 14 days) was 36% and the “mortality over the first 48 h after SE” value ([5]; group for latency to SRS and late cell counting) was 7%. For the same molecule, the “Latency to the first spontaneous seizure” value [6] was 15.5 ± 2.3 days and 15.5 ± 2.34 days, the “neurons surviving in entorhinal cortex, dorsal and ventral” value ([7]; DZP group, 14 days after SE) was 27-81% and the “damage vs control, dorsal entorhinal cortex layer II” value ([7]; DZP rats, 14 days after SE) was 18%. The “damage vs control, dorsal entorhinal cortex layers III-IV” value ([7]; DZP rats, 14 days after SE) was 24%, the “damage vs control, ventral entorhinal cortex layer II” value ([7]; DZP rats, 14 days after SE) was 22% and 19% and the “damage vs control, ventral entorhinal cortex layers III/IV” value ([7]; DZP rats, 14 days after SE) was 74% and 73%. The “neuronal damage, amygdala central nucleus” value ([7]; DZP rats, 14 days after SE) was “no neuronal damage”, the “neuronal drop out vs control, CA1 pyramidal cell layer” value ([7]; DZP rats, 14 days after SE) was 85% and the “neuronal drop out vs control, amygdala basolateral nucleus” value ([7]; DZP rats, 14 days after SE) was 73%. The “neuronal drop out vs control, amygdala medial dorsal anterior nucleus” value ([7]; DZP rats, 14 days after SE) was 53%, the “neuronal drop out vs control, thalamus central medial nucleus” value ([7]; DZP rats, 14 days after SE) was 34% and the “neuronal drop out vs control, thalamus dorsolateral medial dorsal nucleus” value ([7]; DZP rats, 14 days after SE) was 40%. For the same molecule, the “neuronal drop out vs control, thalamus mediodorsal central nucleus” value ([7]; DZP rats, 14 days after SE) was 18%, the “neuronal drop out vs control, thalamus mediodorsal lateral nucleus” value ([7]; DZP rats, 14 days after SE) was 24% and the “neuronal loss vs control, CA3 region” value ([7]; DZP rats, 14 days after SE) was 40%. The “neuronal loss vs control, amygdala medial ventral posterior nucleus” value ([7]; DZP rats, 14 days after SE) was 38%, the “neuronal loss vs control, hilus of dentate gyrus” value ([7]; DZP rats, 14 days after SE) was 65% and 66% and the “neuronal loss vs control, piriform cortex dorsal layer II” value ([7]; DZP rats, 14 days after SE) was 66%. For the same molecule, the “neuronal loss vs control, piriform cortex layer III” value ([7]; DZP rats, 14 days after SE) was 94%, the “neuronal loss vs control, piriform cortex ventral layer II” value ([7]; DZP rats, 14 days after SE) was 89% and the “neuronal loss vs control, thalamus mediodorsal nucleus” value ([7]; DZP rats, 14 days after SE) was 49%. For the same molecule, the “neuronal loss vs control, ventral lateral division of the dorsolateral nucleus” value ([7]; DZP rats, 14 days after SE) was 90%, the “number of neuronal cell bodies: Amygdala Basolateral” value [7, 8] was 12.8 ± 5.3 and the “number of neuronal cell bodies: Amygdala Medial, dorsal anterior” value [7, 8] was 40.0 ± 2.5. The “number of neuronal cell bodies: Amygdala Medial, ventral posterior” value [7, 8] was 21.8 ± 2.4, the “number of neuronal cell bodies: Cerebral cortex Entorhinal, layer II, dorsal” value [7, 8] was 23.5 ± 0.7 and the “number of neuronal cell bodies: Cerebral cortex Entorhinal, layer II, ventral” value [7, 8] was 21.7 ± 1.3. For the same molecule, the “number of neuronal cell bodies: Cerebral cortex Entorhinal, layer III/IV, dorsal” value [7, 8] was 22.3 ± 0.5, the “number of neuronal cell bodies: Cerebral cortex Entorhinal, layer III/IV, ventral” value [7, 8] was 7.7 ± 2.3 and the “number of neuronal cell bodies: Cerebral cortex Piriform, layer II, dorsal” value [7, 8] was 12.6 ± 4.2. For the same molecule, the “number of neuronal cell bodies: Cerebral cortex Piriform, layer II, ventral” value [7, 8] was 3.6 ± 0.7, the “number of neuronal cell bodies: Cerebral cortex Piriform, layer III” value [7, 8] was 1.2 ± 1.2 and the “number of neuronal cell bodies: Hippocampus CA1 area” value [7, 8] was 10.9 ± 1.9. The “number of neuronal cell bodies: Hippocampus CA3 area” value [7, 8] was 31.3 ± 2.9, the “number of neuronal cell bodies: Hippocampus Hilus” value [7, 8] was 33.5 ± 3.0 and the “number of neuronal cell bodies: Thalamus Central medial” value [7, 8] was 74.2 ± 7.4. For the same molecule, the “number of neuronal cell bodies: Thalamus Dorsolateral, medial, dorsal” value [7, 8] was 61 ± 6.3, the “number of neuronal cell bodies: Thalamus Dorsolateral, ventral lateral” value [7, 8] was 9.7 ± 2.5 and the “number of neuronal cell bodies: Thalamus Mediodorsal central” value [7, 8] was 26.3 ± 1.8. The “number of neuronal cell bodies: Thalamus Mediodorsal lateral” value [7, 8] was 19.6 ± 0.8 and the “number of neuronal cell bodies: Thalamus Mediodorsal medial” value [7, 8] was 16.4 ± 1.9.
